This note sets out measurements from article PMC12811658, “Design, Synthesis, and Structural Evolution of Pseudo‐Natural Product IDO1 Inhibitors and Degraders” (Angewandte Chemie (International Ed. in English), 2025).

“Also recorded” adds a separate entry of the source.

The test system of the first assay is Kyn levels in BxPC3 cells (kynurenine generated by IDO1). Put plainly: Cellular Kyn assay (automated Kyn screening assay). The assay is classed as cell-based.
Details: not given
As to `Cc1ccc(NC(=O)NC[C@]23CN(S(=O)(=O)c4ccc(C(C)(C)C)cc4)C[C@H]2C[C@H]2C[C@@H]3C2(C)C)cc1` [compound 7, 1-(((3aR,4R,6R,7aS)-2-((4-(tert-butyl)phenyl)sulfonyl)-5,5-dimethyloctahydro-3aH-4,6-methanoisoindol-3a-yl)methyl)-3-(p-tolyl) urea], the “activity in cellular Kyn assay (in words)” value (shortened to “activity … (in words)”) is “did not improve activity”.

Take `Cc1ccc(NC(=O)OC[C@]23CN(Cc4ccccc4)C[C@H]2C[C@H]2C[C@@H]3C2(C)C)cc1` [compound 9, ((3aS,4R,6R,7aS)-2-benzyl-5,5-dimethyloctahydro-3aH-4,6-methanoisoindol-3a-yl) methyl p-tolylcarbamate]: the “activity … (in words)” value is reported as “abolished activity; also recorded: loss of activity”.

For the compound `Cc1ccc(OC(=O)OC[C@]23CN(S(=O)(=O)c4ccc(C(C)(C)C)cc4)C[C@H]2C[C@H]2C[C@@H]3C2(C)C)cc1` [compound 13, ((3aS,4R,6R,7aS)-2-((4-(tert-butyl)phenyl)sulfonyl)-5,5-dimethyloctahydro-3aH-4,6-methanoisoindol-3a-yl)methyl p-tolyl carbonate], the “activity … (in words)” value is “did not improve activity; also recorded: inactive”.

`CC(C)(C)c1ccc(S(=O)(=O)N2CC3C[C@H]4C[C@H](C4(C)C)[C@]3(COC(=O)c3ccccc3)C2)cc1` (stereo partly drawn) [compound 15, ((3aR,4R,6R)-2-((4-(tert-butyl)phenyl)sulfonyl)-5,5-dimethyloctahydro-3aH-4,6-methanoisoindol-3a-yl)methyl benzoate]: the “activity … (in words)” value is “did not improve activity; also recorded: inactive”.

For the compound `CC(C)(C)c1ccc(C(=O)N2C[C@H]3C[C@H]4C[C@H](C4(C)C)[C@@]3(COC(=O)Nc3ccc(I)cc3)C2)cc1` [compound 16, ((3aS,4R,6R,7aS)-2-(4-(tert-butyl)benzoyl)-5,5-dimethyloctahydro-3aH-4,6-methanoisoindol-3a-yl)methyl (4-iodophenyl)carbamate], the “activity … (in words)” value is “abolished activity”.

With `CC(C)(C)c1ccc(S(=O)(=O)N2C[C@@H]3C[C@@H]4C[C@@H](C4(C)C)[C@]3(COC(=O)Nc3ccc(I)cc3)C2)cc1` [compound 20, ((3aR,4S,6S,7aR)-2-((4-(tert-butyl)phenyl)sulfonyl)-5,5-dimethyloctahydro-3aH-4,6-methanoisoindol-3a-yl)methyl (4-iodophenyl)carbamate], the “fold lower activity than 14 (iDeg-2) in Kyn assay” value was determined as 16 fold.

Turning to `CC(C)(C)c1ccc(S(=O)(=O)N2C[C@@H]3C[C@@H]4[C@H](C[C@]3(COC(=O)Nc3ccc(I)cc3)C2)C4(C)C)cc1` [compound 21, ((3aR,4aS,5aR,6aR)-2-((4-(tert-butyl)phenyl)sulfonyl)-5,5-dimethyloctahydrocyclopropa[f]isoindol-3a(1H)-yl)methyl (4-iodophenyl)carbamate], the “activity … (in words)” value was “inactive”.

In the case of `CC(C)[C@]12C[C@@H](OC(=O)Nc3ccc(I)cc3)[C@]3(CCN(S(=O)(=O)c4ccc(C(C)(C)C)cc4)C3)[C@H]1C2` [compound 23, (1S,2R,3R,5S)-1'-((4-(tert-butyl)phenyl)sulfonyl)-5-isopropylspiro[bicyclo[3.1.0]hexane-2,3'-pyrrolidin]-3-yl (4-iodophenyl) carbamate], the “activity … (in words)” value is “inactive”.

For `CC(C)[C@]12CC(OC(=O)Nc3ccc(I)cc3)[C@]3(CCN(S(=O)(=O)c4ccc(C(C)(C)C)cc4)C3)[C@H]1C2` (stereo partly drawn) [compound 24, (1S,2R,5S)-1'-((4-(tert-butyl)phenyl)sulfonyl)-5-isopropylspiro[bicyclo[3.1.0]hexane-2,3'-pyrrolidin]-3-yl (4-iodophenyl)carbamate], the “activity … (in words)” value is “inactive”.

On to `CC(C)(C)c1ccc(S(=O)(=O)N2CC3CCCCC3(COC(=O)Nc3ccc(I)cc3)C2)cc1` (stereo not shown) [compound 25, (2-((4-(tert-butyl)phenyl)sulfonyl)octahydro-3aH-isoindol-3a-yl) methyl (4-iodophenyl) carbamate], for which the “activity … (in words)” value is “inactive”.

On to `CC(C)(C)c1ccc(S(=O)(=O)N2CC3CCCC3(COC(=O)Nc3ccc(I)cc3)C2)cc1` (stereo not shown) [compound 26, (2-((4-(tert-butyl)phenyl)sulfonyl)hexahydrocyclopenta [c]pyrrol-3a(1H)-yl) methyl (4-iodophenyl) carbamate], for which the “activity … (in words)” value is “inactive”.

Staying with this assay, now noted: Homo sapiens, BXPC-3, 48 h, IFN-γ, L-Trp and compounds 48 h, mean ± SD, read-out: IC50 (Kyn assay), reduction of kynurenine levels.
As usually defined, the IC50 is the concentration at which inhibition is half-maximal. `CCc1ccc(NC(=O)OC[C@]23CN(S(=O)(=O)c4ccc(C(C)(C)C)cc4)C[C@H]2C[C@H]2C[C@@H]3C2(C)C)cc1` [compound 28, ((3aS,4R,6R,7aS)-2-((4-(tert-butyl)phenyl)sulfonyl)-5,5-dimethyloctahydro-3aH-4,6-methanoisoindol-3a-yl)methyl (4-ethylphenyl)carbamate]: the IC50 amounted to 2900 ± 300 nM.

`CC(C)(C)c1ccc(S(=O)(=O)N2C[C@H]3C[C@H]4C[C@H](C4(C)C)[C@@]3(COC(=O)Nc3ccccc3)C2)cc1` [compound 32, ((3aS,4R,6R,7aS)-2-((4-(tert-butyl)phenyl)sulfonyl)-5,5-dimethyloctahydro-3aH-4,6-methanoisoindol-3a-yl)methyl phenylcarbamate]: the IC50 came out at 7000 ± 1600 nM.

For `CC(C)(C)c1ccc(S(=O)(=O)N2C[C@H]3C[C@H]4C[C@H](C4(C)C)[C@@]3(COC(=O)Nc3ccc(F)cc3)C2)cc1` [compound 34, ((3aS,4R,6R,7aS)-2-((4-(tert-butyl)phenyl)sulfonyl)-5,5-dimethyloctahydro-3aH-4,6-methanoisoindol-3a-yl)methyl (4-fluorophenyl)carbamate], the IC50 is over 10000 nM.

On to `CC(C)(C)c1ccc(S(=O)(=O)N2C[C@H]3C[C@H]4C[C@H](C4(C)C)[C@@]3(COC(=O)Nc3ccc(Cl)cc3)C2)cc1` [compound 35, ((3aS,4R,6R,7aS)-2-((4-(tert-butyl)phenyl)sulfonyl)-5,5-dimethyloctahydro-3aH-4,6-methanoisoindol-3a-yl)methyl (4-chlorophenyl)carbamate], for which the IC50 worked out at 510 ± 80 nM.

On to `CC(C)(C)c1ccc(S(=O)(=O)N2C[C@H]3C[C@H]4C[C@H](C4(C)C)[C@@]3(COC(=O)Nc3ccc(Br)cc3)C2)cc1` [compound 36, ((3aS,4R,6R,7aS)-2-((4-(tert-butyl)phenyl)sulfonyl)-5,5-dimethyloctahydro-3aH-4,6-methanoisoindol-3a-yl)methyl (4-bromophenyl)carbamate], for which the IC50 turned out to be 230 ± 50 nM.

Turning to `CC(C)(C)c1ccc(S(=O)(=O)N2C[C@H]3C[C@H]4C[C@H](C4(C)C)[C@@]3(COC(=O)Nc3ccccc3I)C2)cc1` [compound 37, ((3aS,4R,6R,7aS)-2-((4-(tert-butyl)phenyl)sulfonyl)-5,5-dimethyloctahydro-3aH-4,6-methanoisoindol-3a-yl)methyl (2-iodophenyl)carbamate], the IC50 was 890 ± 180 nM.

With `CC(C)(C)c1ccc(S(=O)(=O)N2C[C@H]3C[C@H]4C[C@H](C4(C)C)[C@@]3(COC(=O)Nc3ccccc3Br)C2)cc1` [compound 38, ((3aS,4R,6R,7aS)-2-((4-(tert-butyl)phenyl)sulfonyl)-5,5-dimethyloctahydro-3aH-4,6-methanoisoindol-3a-yl)methyl (2-bromophenyl)carbamate], the IC50 is 390 ± 70 nM.

For the compound `CC(C)(C)c1ccc(S(=O)(=O)N2C[C@H]3C[C@H]4C[C@H](C4(C)C)[C@@]3(COC(=O)Nc3cccc(Br)c3)C2)cc1` [compound 39, ((3aS,4R,6R,7aS)-2-((4-(tert-butyl)phenyl)sulfonyl)-5,5-dimethyloctahydro-3aH-4,6-methanoisoindol-3a-yl)methyl (3-bromophenyl)carbamate], the IC50 came to 9900 ± 1580 nM.

As for `CC(C)(C)c1ccc(S(=O)(=O)N2C[C@H]3C[C@H]4C[C@H](C4(C)C)[C@@]3(COC(=O)Nc3cccc(N=[N+]=[N-])c3)C2)cc1` [compound 41, ((3aS,4R,6R,7aS)-2-((4-(tert-butyl)phenyl)sulfonyl)-5,5-dimethyloctahydro-3aH-4,6-methanoisoindol-3a-yl)methyl (3-azidophenyl)carbamate], the concentration for half-maximal inhibition (IC50) was over 10000 nM.

In the case of `CC(C)(C)c1ccc(S(=O)(=O)N2C[C@H]3C[C@H]4C[C@H](C4(C)C)[C@@]3(COC(=O)Nc3ccc(O)cc3)C2)cc1` [compound 42, ((3aS,4R,6R,7aS)-2-((4-(tert-butyl)phenyl)sulfonyl)-5,5-dimethyloctahydro-3aH-4,6-methanoisoindol-3a-yl)methyl (4-hydroxyphenyl)carbamate], the IC50 was over 10000 nM.

Take `COc1ccc(NC(=O)OC[C@]23CN(S(=O)(=O)c4ccc(C(C)(C)C)cc4)C[C@H]2C[C@H]2C[C@@H]3C2(C)C)cc1` [compound 44, ((3aS,4R,6R,7aS)-2-((4-(tert-butyl)phenyl)sulfonyl)-5,5-dimethyloctahydro-3aH-4,6-methanoisoindol-3a-yl)methyl (4-methoxyphenyl)carbamate]: the IC50 is 1200 ± 200 nM.

In the case of `CC(C)(C)c1ccc(S(=O)(=O)N2C[C@H]3C[C@H]4C[C@H](C4(C)C)[C@@]3(COC(=O)Nc3ccc(C(F)(F)F)cc3)C2)cc1` [compound 45, ((3aS,4R,6R,7aS)-2-((4-(tert-butyl)phenyl)sulfonyl)-5,5-dimethyloctahydro-3aH-4,6-methanoisoindol-3a-yl)methyl (4-(trifluoromethyl)phenyl)carbamate], the IC50 was over 10000 nM.

Consider `CC(C)(C)c1ccc(S(=O)(=O)N2C[C@H]3C[C@H]4C[C@H](C4(C)C)[C@@]3(COC(=O)Nc3ccc(C#N)cc3)C2)cc1` [compound 47, ((3aS,4R,6R,7aS)-2-((4-(tert-butyl)phenyl)sulfonyl)-5,5-dimethyloctahydro-3aH-4,6-methanoisoindol-3a-yl)methyl (4-cyanophenyl)carbamate], for which the IC50 was 2100 ± 800 nM.

Take `CC(C)(C)c1ccc(S(=O)(=O)N2C[C@H]3C[C@H]4C[C@H](C4(C)C)[C@@]3(COC(=O)Nc3ccc(C#CCCO)cc3)C2)cc1` [compound 53, ((3aS,4R,6R,7aS)-2-((4-(tert-butyl)phenyl)sulfonyl)-5,5-dimethyloctahydro-3aH-4,6-methanoisoindol-3a-yl)methyl (4-(4-hydroxybut-1-yn-1-yl)phenyl)carbamate]: the IC50 was 2500 ± 200 nM.
